Laboratory results published in the NIST ThermoML archive (doi:10.1021/acs.jced.8b00537).

Test: xn = mol fraction of the nth substance listed
Settings: 100 kPa, Liquid; for viscosity: Capillary tube (Ostwald / Ubbelohde) method; for speed of sound: Frequency=3 MHz, Single path-length method; for mass density: Vibrating tube method

C=CCn1cc[n+](C)c1.O=S(=O)([N-]S(=O)(=O)C(F)(F)F)C(F)(F)F + CCCO
Settings | mass density [kg/m3] | speed of sound [m/s] | viscosity [mPa·s]
293.15 K, x1 = 0.04962 | 915 | 1204.7 | 2.854
293.15 K, x1 = 0.1003 | 1005 | 1193.5 | 3.841
293.15 K, x1 = 0.1995 | 1136 | 1193.5 | 5.727
293.15 K, x1 = 0.2987 | 1228 | 1202.2 | 7.59
293.15 K, x1 = 0.399 | 1297 | 1210.6 | 9.85
293.15 K, x1 = 0.5003 | 1352 | 1221 | 12.17
293.15 K, x1 = 0.6007 | 1394 | 1227.5 | 15.66
293.15 K, x1 = 0.6971 | 1428 | 1234.7 | 19.1
293.15 K, x1 = 0.8024 | 1459 | 1241.9 | 24.1
293.15 K, x1 = 0.8974 | 1483 | 1246.5 | 30.62
293.15 K, x1 = 1 | 1505 | 1251.6 | 41.83
298.15 K, x1 = 0.04962 | – | 1189.4 | –
298.15 K, x1 = 0.1003 | – | 1179 | –
298.15 K, x1 = 0.1995 | – | 1180.2 | –
298.15 K, x1 = 0.2987 | – | 1189.5 | –
298.15 K, x1 = 0.399 | – | 1198.3 | –
298.15 K, x1 = 0.5003 | – | 1208.9 | –
298.15 K, x1 = 0.6007 | – | 1215.6 | –
298.15 K, x1 = 0.6971 | – | 1222.9 | –
298.15 K, x1 = 0.8024 | – | 1230.3 | –
298.15 K, x1 = 0.8974 | – | 1235 | –
298.15 K, x1 = 1 | – | 1240.2 | –
303.15 K, x1 = 0.04962 | 906 | 1174 | 2.215
303.15 K, x1 = 0.1003 | 996 | 1164.6 | 2.899
303.15 K, x1 = 0.1995 | 1126 | 1167 | 4.266
303.15 K, x1 = 0.2987 | 1219 | 1176.9 | 5.633
303.15 K, x1 = 0.399 | 1287 | 1186 | 7.268
303.15 K, x1 = 0.5003 | 1341 | 1197 | 8.94
303.15 K, x1 = 0.6007 | 1384 | 1203.9 | 11.42
303.15 K, x1 = 0.6971 | 1418 | 1211.3 | 13.82
303.15 K, x1 = 0.8024 | 1449 | 1218.8 | 17.21
303.15 K, x1 = 0.8974 | 1472 | 1223.6 | 21.53
303.15 K, x1 = 1 | 1495 | 1228.9 | 28.51
308.15 K, x1 = 0.04962 | 902 | 1158.7 | 1.969
308.15 K, x1 = 0.1003 | 991 | 1150.4 | 2.555
308.15 K, x1 = 0.1995 | 1121 | 1153.9 | 3.74
308.15 K, x1 = 0.2987 | 1214 | 1164.4 | 4.928
308.15 K, x1 = 0.399 | 1282 | 1174 | 6.339
308.15 K, x1 = 0.5003 | 1336 | 1185.2 | 7.782
308.15 K, x1 = 0.6007 | 1379 | 1192.3 | 9.908
308.15 K, x1 = 0.6971 | 1413 | 1199.9 | 11.95
308.15 K, x1 = 0.8024 | 1444 | 1207.5 | 14.8
308.15 K, x1 = 0.8974 | 1467 | 1212.4 | 18.38
308.15 K, x1 = 1 | 1489 | 1217.8 | 23.96
313.15 K, x1 = 0.04962 | 898 | 1143.4 | 1.759
313.15 K, x1 = 0.1003 | 987 | 1136.2 | 2.266
313.15 K, x1 = 0.1995 | 1117 | 1140.9 | 3.302
313.15 K, x1 = 0.2987 | 1209 | 1152 | 4.344
313.15 K, x1 = 0.399 | 1277 | 1162 | 5.574
313.15 K, x1 = 0.5003 | 1331 | 1173.5 | 6.833
313.15 K, x1 = 0.6007 | 1374 | 1180.8 | 8.677
313.15 K, x1 = 0.6971 | 1408 | 1188.6 | 10.42
313.15 K, x1 = 0.8024 | 1439 | 1196.3 | 12.85
313.15 K, x1 = 0.8974 | 1462 | 1201.3 | 15.85
313.15 K, x1 = 1 | 1484 | 1206.8 | 20.41
318.15 K, x1 = 0.04962 | 893 | 1128.2 | 1.577
318.15 K, x1 = 0.1003 | 982 | 1122.1 | 2.021
318.15 K, x1 = 0.1995 | 1112 | 1128 | 2.938
318.15 K, x1 = 0.2987 | 1204 | 1139.7 | 3.858
318.15 K, x1 = 0.399 | 1272 | 1150.1 | 4.937
318.15 K, x1 = 0.5003 | 1326 | 1161.8 | 6.043
318.15 K, x1 = 0.6007 | 1369 | 1169.4 | 7.657
318.15 K, x1 = 0.6971 | 1403 | 1177.4 | 9.174
318.15 K, x1 = 0.8024 | 1434 | 1185.2 | 11.26
318.15 K, x1 = 0.8974 | 1457 | 1190.4 | 13.81
318.15 K, x1 = 1 | 1479 | 1196 | 17.51
323.15 K, x1 = 0.04962 | 889 | 1113 | 1.421
323.15 K, x1 = 0.1003 | 977 | 1108 | 1.813
323.15 K, x1 = 0.1995 | 1107 | 1115.1 | 2.632
323.15 K, x1 = 0.2987 | 1199 | 1127.5 | 3.453
323.15 K, x1 = 0.399 | 1268 | 1138.3 | 4.402
323.15 K, x1 = 0.5003 | 1321 | 1150.3 | 5.384
323.15 K, x1 = 0.6007 | 1364 | 1158.2 | 6.806
323.15 K, x1 = 0.6971 | 1398 | 1166.3 | 8.132
323.15 K, x1 = 0.8024 | 1429 | 1174.3 | 9.945
323.15 K, x1 = 0.8974 | 1452 | 1179.6 | 12.12
323.15 K, x1 = 1 | 1474 | 1185.2 | 15.19
328.15 K, x1 = 0.04962 | 884 | 1097.9 | 1.284
328.15 K, x1 = 0.1003 | 973 | 1094 | 1.635
328.15 K, x1 = 0.1995 | 1102 | 1102.2 | 2.37
328.15 K, x1 = 0.2987 | 1194 | 1115.3 | 3.106
328.15 K, x1 = 0.399 | 1263 | 1126.6 | 3.956
328.15 K, x1 = 0.5003 | 1316 | 1138.8 | 4.83
328.15 K, x1 = 0.6007 | 1359 | 1147 | 6.09
328.15 K, x1 = 0.6971 | 1393 | 1155.3 | 7.262
328.15 K, x1 = 0.8024 | 1424 | 1163.5 | 8.834
328.15 K, x1 = 0.8974 | 1447 | 1168.9 | 10.73
328.15 K, x1 = 1 | 1469 | 1174.7 | 13.23
333.15 K, x1 = 0.04962 | 880 | 1082.7 | 1.166
333.15 K, x1 = 0.1003 | 968 | 1080 | 1.48
333.15 K, x1 = 0.1995 | 1097 | 1089.5 | 2.146
333.15 K, x1 = 0.2987 | 1189 | 1103.1 | 2.812
333.15 K, x1 = 0.399 | 1258 | 1114.9 | 3.573
333.15 K, x1 = 0.5003 | 1312 | 1127.5 | 4.36
333.15 K, x1 = 0.6007 | 1354 | 1135.9 | 5.485
333.15 K, x1 = 0.6971 | 1388 | 1144.5 | 6.518
333.15 K, x1 = 0.8024 | 1419 | 1152.8 | 7.905
333.15 K, x1 = 0.8974 | 1442 | 1158.4 | 9.475
333.15 K, x1 = 1 | 1465 | 1164.2 | 11.62
338.15 K, x1 = 0.04962 | 875 | 1067.5 | 1.061
338.15 K, x1 = 0.1003 | 963 | 1065.9 | 1.347
338.15 K, x1 = 0.1995 | 1092 | 1076.7 | 1.953
338.15 K, x1 = 0.2987 | 1184 | 1091 | 2.558
338.15 K, x1 = 0.399 | 1253 | 1103.4 | 3.252
338.15 K, x1 = 0.5003 | 1307 | 1116.2 | 3.957
338.15 K, x1 = 0.6007 | 1349 | 1124.9 | 4.964
338.15 K, x1 = 0.6971 | 1383 | 1133.8 | 5.889
338.15 K, x1 = 0.8024 | 1414 | 1142.2 | 7.111
338.15 K, x1 = 0.8974 | 1437 | 1147.9 | 8.498
338.15 K, x1 = 1 | 1460 | 1153.8 | 10.28
343.15 K, x1 = 0.04962 | 870 | 1052.3 | 0.971
343.15 K, x1 = 0.1003 | 958 | 1052.2 | 1.23
343.15 K, x1 = 0.1995 | 1088 | 1064.2 | 1.786
343.15 K, x1 = 0.2987 | 1179 | 1078.9 | 2.342
343.15 K, x1 = 0.399 | 1248 | 1092.1 | 2.974
343.15 K, x1 = 0.5003 | 1302 | 1105 | 3.611
343.15 K, x1 = 0.6007 | 1345 | 1114 | 4.521
343.15 K, x1 = 0.6971 | 1378 | 1123.3 | 5.348
343.15 K, x1 = 0.8024 | 1409 | 1131.9 | 6.435
343.15 K, x1 = 0.8974 | 1433 | 1137.8 | 7.661
343.15 K, x1 = 1 | 1455 | 1143.5 | 9.125
